{"source": "patent US9085605B2", "about": "“Chemical synthesis and anti-tumor and anti-metastatic effects of dual functional conjugate” (Shenzhen Salubris Pharmaceuticals Co., Ltd., priority 2010, dated 2015)", "key": {"[1]": {"test_system": "human breast cancer line MDA-MB-231", "assay": "Tumor growth inhibition in nude mice xenograft model, MDA-MB-231", "procedure": "• 1. […] Drug administration dose were set as: 10 mg/kg, 15 mg/kg, and 20 mk/kg, drug administration volume was 0.2 mL/20 g. • 2. […] MDA [Peptide (P) 0.54 mg/mL (0.001M), Example 10], a colorless and clear liquid, was prepared by the commission, can be directly used after the repackaging in a sterile condition, stored at 4° C. […] Certificate NO. […] SYSK (BeiJing) 2004-0001. Experiment Methods:\nThe mice were divided into groups and administrated drug after 11 days.\nThe mice were divided into eight groups, each group had 6-8 mice. The groups contained Negative control. […] After grouping, all mice were administrated with drug by intraperitoneal injection once a day depends on their body weight.\nOther groups were administered with drugs for 24 times successively. The experiment was completed 24 h after the last administration.\nThe mice were sacrificed, and tumors were isolated and their weight was measured, and the inhibition rate of tumor growth by drugs were calculated. […] Calculation methods and formula were omitted."}, "Human breast cancer MX-1": {"test_system": "Human breast cancer MX-1", "assay": "Xenograft tumor nude mice screening, MX-1", "format": "in vivo, BALB/c nu mice", "conditions": "30 mg/kg i.p., 10~12 times", "procedure": "Certificate NO. SCXK (BeiJing) 2005-0013. • Cell lines: The tumor cell lines were passaged and cultured by our Lab, some of them was obtained from ATCC. • The tumor cell lines included: Human breast cancer MX-1 and MCF-7. • Human ovarian cancer A2780, and clear Human ovarian cell cancer ES-2, • Human lung cancer H1975 and A549. Experiment Method: • 1. […] The administration dose and treatment progress was determined based from the preliminary experiments, which had solid effects and the shortest treatment period—the dose of 30 mg/kg/day, and the administration duration time of every lot experiment was not more than 12 days."}, "[2]": {"conditions": "30 mg/kg × 12, i.p. once a day, then withdrawn, larger starting tumors"}}, "note": "“And” between values parts separate entries of the source, which are not always exact repeats. Identical values can stand only once. Like-named read-outs stand apart in the source and are kept apart here.", "data": [{"smiles": "CC(=O)O[C@H]1C(=O)[C@@]2(C)[C@H]([C@H](OC(=O)c3ccccc3)[C@]3(O)C[C@H](OC(=O)[C@H](OC(=O)CCC(=O)NCCCCC(NC(=O)CC[C@H](NC(=O)C(C)NC(=O)/C=C/c4ccc(Cl)cc4)C(N)=O)C(N)=O)[C@@H](NC(=O)c4ccccc4)c4ccccc4)C(C)=C1C3(C)C)[C@]1(OC(C)=O)CO[C@@H]1C[C@@H]2O", "note": "(some centres unmarked) [MTC-220]", "values": [{"measurement": "Body weight Beginning", "setting": "[1]; 10 mg/kg × 24, i.p. once a day", "value": "17.4 ± 1.47", "unit": "g"}, {"measurement": "Body weight End", "setting": "[1]; 10 mg/kg × 24, i.p. once a day", "value": "20.6 ± 1.64", "unit": "g"}, {"measurement": "RTV", "setting": "[1]; 10 mg/kg × 24, i.p. once a day", "value": "12.62 ± 5.924"}, {"measurement": "T/C", "setting": "[1]; 10 mg/kg × 24, i.p. once a day", "value": 70.0, "unit": "%"}, {"measurement": "TGI", "setting": "[1]; 10 mg/kg × 24, i.p. once a day", "value": 37.3, "unit": "%"}, {"measurement": "Tumor volume Beginning", "setting": "[1]; 10 mg/kg × 24, i.p. once a day", "value": "135 ± 70.6", "unit": "mm^3"}, {"measurement": "Tumor volume End", "setting": "[1]; 10 mg/kg × 24, i.p. once a day", "value": "1655 ± 929.4", "unit": "mm^3"}, {"measurement": "Tumor weight", "setting": "[1]; 10 mg/kg × 24, i.p. once a day", "value": "1.78 ± 1.016", "unit": "g"}, {"measurement": "Body weight increase compared to the beginning of the grouping", "setting": "[1]; 15 mg/kg × 24, end of the experiment", "value": 2.7, "unit": "g"}, {"measurement": "Body weight Beginning", "setting": "[1]; 15 mg/kg × 24, i.p. once a day", "value": "17.9 ± 0.88", "unit": "g"}, {"measurement": "Body weight End", "setting": "[1]; 15 mg/kg × 24, i.p. once a day", "value": "20.6 ± 0.91", "unit": "g"}, {"measurement": "RTV", "setting": "[1]; 15 mg/kg × 24, i.p. once a day", "value": "7.12 ± 4.064"}, {"measurement": "T/C", "setting": "[1]; 15 mg/kg × 24, i.p. once a day", "value": "39.5% and 37.5% and 39.49%"}, {"measurement": "TGI", "setting": "[1]; 15 mg/kg × 24, i.p. once a day", "value": 57.4, "unit": "%"}, {"measurement": "Tumor volume Beginning", "setting": "[1]; 15 mg/kg × 24, i.p. once a day", "value": "148 ± 80.5", "unit": "mm^3"}, {"measurement": "Tumor volume End", "setting": "[1]; 15 mg/kg × 24, i.p. once a day", "value": "967 ± 590.4", "unit": "mm^3"}, {"measurement": "Tumor weight", "setting": "[1]; 15 mg/kg × 24, i.p. once a day", "value": "1.21 ± 0.813", "unit": "g"}, {"measurement": "Body weight increase compared to the beginning of the grouping", "setting": "[1]; 20 mg/kg × 24, end of the experiment", "value": 1.9, "unit": "g"}, {"measurement": "Body weight Beginning", "setting": "[1]; 20 mg/kg × 24, i.p. once a day", "value": "17.0 ± 1.11", "unit": "g"}, {"measurement": "Body weight End", "setting": "[1]; 20 mg/kg × 24, i.p. once a day", "value": "18.9 ± 1.58", "unit": "g"}, {"measurement": "RTV", "setting": "[1]; 20 mg/kg × 24, i.p. once a day", "value": "4.58 ± 2.456"}, {"measurement": "T/C", "setting": "[1]; 20 mg/kg × 24, i.p. once a day", "value": 25.40, "unit": "%"}, {"measurement": "TGI", "setting": "[1]; 20 mg/kg × 24, i.p. once a day", "value": 72.2, "unit": "%"}, {"measurement": "Tumor volume Beginning", "setting": "[1]; 20 mg/kg × 24, i.p. once a day", "value": "133 ± 57.6", "unit": "mm^3"}, {"measurement": "Tumor volume End", "setting": "[1]; 20 mg/kg × 24, i.p. once a day", "value": "642 ± 482.3", "unit": "mm^3"}, {"measurement": "Tumor weight", "setting": "[1]; 20 mg/kg × 24, i.p. once a day", "value": "0.79 ± 0.654", "unit": "g"}, {"measurement": "Body weight increase compared to the beginning of the grouping", "setting": "[1]; 30 mg/kg × 12, end of the experiment", "value": 2.6, "unit": "g"}, {"measurement": "Body weight Beginning", "setting": "[1]; [2]", "value": "17.5 ± 1.09", "unit": "g"}, {"measurement": "Body weight End", "setting": "[1]; [2]", "value": "20.1 ± 0.98", "unit": "g"}, {"measurement": "RTV", "setting": "[1]; [2]", "value": "1.11 ± 1.366"}, {"measurement": "T/C", "setting": "[1]; [2]", "value": 6.16, "unit": "%"}, {"measurement": "TGI", "setting": "[1]; [2]", "value": ">87.0", "unit": "%"}, {"measurement": "Tumor volume Beginning", "setting": "[1]; [2]", "value": "340 ± 58.4", "unit": "mm^3"}, {"measurement": "Tumor volume End", "setting": "[1]; [2]", "value": "391 ± 480.5", "unit": "mm^3"}, {"measurement": "Tumor weight", "setting": "[1]; [2]", "value": "0.37 ± 0.413", "unit": "g"}, {"measurement": "Body weight Beginning", "setting": "Human lung cancer H460; 5 mg/kg × 25, i.p.", "value": "18.0 ± 0.95", "unit": "g"}, {"measurement": "Body weight End", "setting": "Human lung cancer H460; 5 mg/kg × 25, i.p.", "value": "21.9 ± 1.10", "unit": "g"}, {"measurement": "RTV", "setting": "Human lung cancer H460; 5 mg/kg × 25, i.p.", "value": "32.0 ± 8.27"}, {"measurement": "T/C", "setting": "Human lung cancer H460; 5 mg/kg × 25, i.p.", "value": 96.2, "unit": "%"}, {"measurement": "TGI", "setting": "Human lung cancer H460; 5 mg/kg × 25, i.p.", "value": 2.15, "unit": "%"}, {"measurement": "Tumor volume Beginning", "setting": "Human lung cancer H460; 5 mg/kg × 25, i.p.", "value": "125 ± 36.8", "unit": "mm^3"}, {"measurement": "Tumor volume End", "setting": "Human lung cancer H460; 5 mg/kg × 25, i.p.", "value": "3737 ± 591.0", "unit": "mm^3"}, {"measurement": "Tumor weight", "setting": "Human lung cancer H460; 5 mg/kg × 25, i.p.", "value": "2.91 ± 0.695", "unit": "g"}, {"measurement": "Growth rate of tumor volume compared to negative control", "setting": "Human lung cancer H460; 5 mg/kg, 25 days successive administration", "value": "not significantly different"}, {"measurement": "Body weight Beginning", "setting": "Human lung cancer H460; 10 mg/kg × 25, i.p.", "value": "18.2 ± 0.70", "unit": "g"}, {"measurement": "Body weight End", "setting": "Human lung cancer H460; 10 mg/kg × 25, i.p.", "value": "21.4 ± 1.15", "unit": "g"}, {"measurement": "RTV", "setting": "Human lung cancer H460; 10 mg/kg × 25, i.p.", "value": "27.7 ± 6.81"}, {"measurement": "T/C", "setting": "Human lung cancer H460; 10 mg/kg × 25, i.p.", "value": 83.1, "unit": "%"}, {"measurement": "TGI", "setting": "Human lung cancer H460; 10 mg/kg × 25, i.p.", "value": 17.3, "unit": "%"}, {"measurement": "Tumor volume Beginning", "setting": "Human lung cancer H460; 10 mg/kg × 25, i.p.", "value": "125 ± 43.0", "unit": "mm^3"}, {"measurement": "Tumor volume End", "setting": "Human lung cancer H460; 10 mg/kg × 25, i.p.", "value": "3274 ± 797.0", "unit": "mm^3"}, {"measurement": "Tumor weight", "setting": "Human lung cancer H460; 10 mg/kg × 25, i.p.", "value": "2.46 ± 0.624", "unit": "g"}, {"measurement": "Tumor volume inhibition", "setting": "Human lung cancer H460; 10 mg/kg, end of the experiment", "value": 18.8, "unit": "%"}, {"measurement": "Body weight Beginning", "setting": "Human lung cancer H460; 20 mg/kg × 25, i.p.", "value": "17.8 ± 1.10", "unit": "g"}, {"measurement": "Body weight End", "setting": "Human lung cancer H460; 20 mg/kg × 25, i.p.", "value": "18.9 ± 2.49", "unit": "g"}, {"measurement": "RTV", "setting": "Human lung cancer H460; 20 mg/kg × 25, i.p.", "value": "16.7 ± 9.93"}, {"measurement": "T/C", "setting": "Human lung cancer H460; 20 mg/kg × 25, i.p.", "value": 50.1, "unit": "%"}, {"measurement": "TGI", "setting": "Human lung cancer H460; 20 mg/kg × 25, i.p.", "value": 52.9, "unit": "%"}, {"measurement": "Tumor volume Beginning", "setting": "Human lung cancer H460; 20 mg/kg × 25, i.p.", "value": "123 ± 44.6", "unit": "mm^3"}, {"measurement": "Tumor volume End", "setting": "Human lung cancer H460; 20 mg/kg × 25, i.p.", "value": "1963 ± 641.9", "unit": "mm^3"}, {"measurement": "Tumor weight", "setting": "Human lung cancer H460; 20 mg/kg × 25, i.p.", "value": "1.40 ± 0.466", "unit": "g"}, {"measurement": "Inhibition of tumor growth (in words)", "setting": "Human breast cancer MX-1", "value": "weak"}]}]}
